What was measured:
[1] = biological target: T1, E. coli respiratory complex I (NADH:ubiquinone oxidoreductase) (Escherichia coli, UniProt P31979); experiment: NADH:ferricyanide oxidoreductase assay, NADH oxidation at […] nm, Lineweaver-Burk secondary plots; format: biochemical; conditions: reaction started by enzyme (oxidised enzyme), ferricyanide 0.25-2 mM, pH 6.0, 30 °C, ping-pong-pong with double substrate inhibition, competitive with ferricyanide at the reduced
T1 construct: gene nuoF; whole complex from the nuo operon, His-tagged NuoF, overproduced in E. coli, DDM-solubilised, purified by anion exchange, Ni-IDA and Source Q; with NADH-quinone oxidoreductase subunit E; NADH-quinone oxidoreductase subunit G; NADH-quinone oxidoreductase subunit C/D; NADH-quinone oxidoreductase subunit B; NADH-quinone oxidoreductase subunit I; NADH-quinone oxidoreductase subunit A; NADH-quinone oxidoreductase subunit H; NADH-quinone oxidoreductase subunit J; NADH-quinone oxidoreductase subunit K; NADH-quinone oxidoreductase subunit L; NADH-quinone oxidoreductase subunit M; NADH-quinone oxidoreductase subunit N
T1 sequence (P0AFD1 whole entry V96P/N142M, form open, one chain of several): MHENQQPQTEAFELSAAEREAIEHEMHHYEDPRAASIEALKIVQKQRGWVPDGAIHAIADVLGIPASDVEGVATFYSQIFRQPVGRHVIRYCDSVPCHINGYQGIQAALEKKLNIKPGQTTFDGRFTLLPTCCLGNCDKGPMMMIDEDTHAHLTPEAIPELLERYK

[2] = biological target: T1, E. coli respiratory complex I (NADH:ubiquinone oxidoreductase); experiment: as above; format: biochemical; conditions: reaction started by enzyme (oxidised enzyme); ferricyanide 0.25-2 mM; pH 6.0, 30 °C; ping-pong-pong with double substrate inhibition; read-out: Km, app. ^NADH
[3] = biological target: T2, E. coli respiratory complex I (NADH:ubiquinone oxidoreductase) (Escherichia coli, UniProt P31979); experiment: as above; format: biochemical; conditions: reaction started by enzyme (oxidised enzyme), ferricyanide 0.25-2 mM, pH 6.0, 30 °C, ping-pong-pong with double substrate inhibition, competitive with ferricyanide at the reduced; remark: listed apart in the source
T2 construct: gene nuoF; whole complex from the nuo operon, His-tagged NuoF, overproduced in E. coli, DDM-solubilised, purified by anion exchange, Ni-IDA and Source Q; with NADH-quinone oxidoreductase subunit E; NADH-quinone oxidoreductase subunit G; NADH-quinone oxidoreductase subunit C/D; NADH-quinone oxidoreductase subunit B; NADH-quinone oxidoreductase subunit I; NADH-quinone oxidoreductase subunit A; NADH-quinone oxidoreductase subunit H; NADH-quinone oxidoreductase subunit J; NADH-quinone oxidoreductase subunit K; NADH-quinone oxidoreductase subunit L; NADH-quinone oxidoreductase subunit M; NADH-quinone oxidoreductase subunit N
T2 sequence (P31979 1-445): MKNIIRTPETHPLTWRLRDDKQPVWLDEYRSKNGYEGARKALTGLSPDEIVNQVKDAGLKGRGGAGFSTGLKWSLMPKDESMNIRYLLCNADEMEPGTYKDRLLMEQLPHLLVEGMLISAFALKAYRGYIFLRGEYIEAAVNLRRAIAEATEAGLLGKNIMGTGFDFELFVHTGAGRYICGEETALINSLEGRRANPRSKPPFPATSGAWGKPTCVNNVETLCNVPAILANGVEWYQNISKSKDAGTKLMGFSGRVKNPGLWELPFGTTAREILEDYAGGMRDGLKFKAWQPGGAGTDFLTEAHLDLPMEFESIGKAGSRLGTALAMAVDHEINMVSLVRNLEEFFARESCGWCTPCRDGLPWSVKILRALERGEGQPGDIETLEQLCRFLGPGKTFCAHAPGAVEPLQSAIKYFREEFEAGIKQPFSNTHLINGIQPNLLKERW
T2 sequence (P0AFD1 1-166 partner): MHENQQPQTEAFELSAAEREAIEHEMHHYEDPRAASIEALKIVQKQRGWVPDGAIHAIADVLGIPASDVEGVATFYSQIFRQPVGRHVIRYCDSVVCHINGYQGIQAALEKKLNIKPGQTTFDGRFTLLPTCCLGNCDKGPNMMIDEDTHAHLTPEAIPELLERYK
T2 sequence (P33602 2-908 partner): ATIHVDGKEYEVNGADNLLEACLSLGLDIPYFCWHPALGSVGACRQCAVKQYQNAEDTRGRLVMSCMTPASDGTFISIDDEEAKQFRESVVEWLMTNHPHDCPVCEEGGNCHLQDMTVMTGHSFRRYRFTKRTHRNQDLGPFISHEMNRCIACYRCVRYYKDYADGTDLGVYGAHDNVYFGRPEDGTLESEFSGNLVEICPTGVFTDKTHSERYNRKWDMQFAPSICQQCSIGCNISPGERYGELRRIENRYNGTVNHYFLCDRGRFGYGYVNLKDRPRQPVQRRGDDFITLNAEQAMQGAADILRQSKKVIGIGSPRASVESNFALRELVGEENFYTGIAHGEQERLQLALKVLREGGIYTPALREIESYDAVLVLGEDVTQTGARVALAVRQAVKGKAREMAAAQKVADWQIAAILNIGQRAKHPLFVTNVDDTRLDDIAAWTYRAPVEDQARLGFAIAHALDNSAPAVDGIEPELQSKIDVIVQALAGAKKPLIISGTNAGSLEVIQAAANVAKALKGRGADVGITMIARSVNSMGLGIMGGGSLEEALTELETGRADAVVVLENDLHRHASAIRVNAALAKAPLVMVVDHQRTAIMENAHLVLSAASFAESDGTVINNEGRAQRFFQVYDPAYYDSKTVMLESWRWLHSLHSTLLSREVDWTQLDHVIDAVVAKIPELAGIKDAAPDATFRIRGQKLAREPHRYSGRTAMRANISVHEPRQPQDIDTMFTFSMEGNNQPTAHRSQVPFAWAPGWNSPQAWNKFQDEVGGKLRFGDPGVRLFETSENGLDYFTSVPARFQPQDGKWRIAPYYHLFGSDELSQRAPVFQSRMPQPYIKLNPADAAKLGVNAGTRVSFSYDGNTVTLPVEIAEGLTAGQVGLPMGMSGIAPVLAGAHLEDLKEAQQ

[4] = biological target: T2, E. coli respiratory complex I (NADH:ubiquinone oxidoreductase); experiment: as above; format: biochemical; conditions: reaction started by enzyme (oxidised enzyme); pH 6.0, 30 °C; off-rate derived from steady-state kinetics, not a Kd
[5] = biological target: T1, E. coli respiratory complex I (NADH:ubiquinone oxidoreductase); experiment: as above; format: biochemical; conditions: reaction started by enzyme (oxidised enzyme); pH 6.0, 30 °C; off-rate derived from steady-state kinetics, not a Kd; remark: listed apart in the source
[6] = biological target: T3, T. thermophilus complex I (Thermus thermophilus, UniProt Q56222); experiment: d-NADH:ferricyanide oxidoreductase activity of cytoplasmic membranes, […] nm; format: biochemical; conditions: ferricyanide as acceptor; 50 mM Bis-Tris, pH 7.3 (Figure 1 legend), 60 °C
T3 construct: gene nqo1; native complex in isolated T. thermophilus cytoplasmic membranes; with NADH-quinone oxidoreductase subunit 2; NADH-quinone oxidoreductase subunit 3; NADH-quinone oxidoreductase subunit 4; NADH-quinone oxidoreductase subunit 5; NADH-quinone oxidoreductase subunit 6; NADH-quinone oxidoreductase subunit 7; NADH-quinone oxidoreductase subunit 8; NADH-quinone oxidoreductase subunit 9; NADH-quinone oxidoreductase subunit 10; NADH-quinone oxidoreductase subunit 11; NADH-quinone oxidoreductase subunit 12; NADH-quinone oxidoreductase subunit 13; NADH-quinone oxidoreductase subunit 14; NADH-quinone oxidoreductase subunit 15; NADH-quinone oxidoreductase subunit 16
T3 sequence (Q56222 1-438): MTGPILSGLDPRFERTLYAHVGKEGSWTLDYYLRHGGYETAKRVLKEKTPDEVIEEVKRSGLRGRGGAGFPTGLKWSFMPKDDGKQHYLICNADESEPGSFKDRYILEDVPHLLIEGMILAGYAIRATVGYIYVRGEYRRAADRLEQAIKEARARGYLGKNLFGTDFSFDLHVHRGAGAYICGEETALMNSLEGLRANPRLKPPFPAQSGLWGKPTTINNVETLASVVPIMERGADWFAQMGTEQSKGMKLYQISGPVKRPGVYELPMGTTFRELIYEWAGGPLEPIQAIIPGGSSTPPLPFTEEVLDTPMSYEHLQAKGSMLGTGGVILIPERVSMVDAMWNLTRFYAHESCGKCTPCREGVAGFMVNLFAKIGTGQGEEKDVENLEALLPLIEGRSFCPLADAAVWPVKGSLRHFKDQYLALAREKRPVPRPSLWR
T3 sequence (Q56221 2-181 partner): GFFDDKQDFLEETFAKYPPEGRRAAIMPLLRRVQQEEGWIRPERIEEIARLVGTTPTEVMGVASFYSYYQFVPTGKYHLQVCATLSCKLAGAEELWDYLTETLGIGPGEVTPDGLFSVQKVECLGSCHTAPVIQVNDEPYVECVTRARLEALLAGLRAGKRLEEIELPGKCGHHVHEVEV
T3 sequence (Q56223 1-783 partner): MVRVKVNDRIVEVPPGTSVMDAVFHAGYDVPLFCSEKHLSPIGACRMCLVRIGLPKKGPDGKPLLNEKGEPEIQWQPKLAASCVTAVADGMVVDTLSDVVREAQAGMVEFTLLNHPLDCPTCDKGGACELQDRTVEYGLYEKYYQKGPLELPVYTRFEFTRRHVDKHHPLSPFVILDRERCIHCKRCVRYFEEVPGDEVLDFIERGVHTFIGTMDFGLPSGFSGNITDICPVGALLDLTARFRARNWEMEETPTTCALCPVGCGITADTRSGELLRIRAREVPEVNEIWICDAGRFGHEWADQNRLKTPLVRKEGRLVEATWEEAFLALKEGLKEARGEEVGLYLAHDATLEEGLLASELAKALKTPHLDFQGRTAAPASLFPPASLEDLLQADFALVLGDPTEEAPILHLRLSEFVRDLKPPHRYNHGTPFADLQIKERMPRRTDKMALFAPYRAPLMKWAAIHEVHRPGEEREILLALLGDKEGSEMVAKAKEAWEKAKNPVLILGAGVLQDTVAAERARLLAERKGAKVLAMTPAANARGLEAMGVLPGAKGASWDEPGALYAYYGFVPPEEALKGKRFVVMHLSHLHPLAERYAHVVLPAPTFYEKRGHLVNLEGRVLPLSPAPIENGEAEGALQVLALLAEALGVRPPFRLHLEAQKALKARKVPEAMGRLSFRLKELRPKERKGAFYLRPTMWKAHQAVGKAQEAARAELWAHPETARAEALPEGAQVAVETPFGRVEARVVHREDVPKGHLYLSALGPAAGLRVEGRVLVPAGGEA

purified protein = substrate: NC(=O)C1=CN([C@@H]2O[C@H](COP(=O)(O)OP(=O)(O)OC[C@H]3O[C@@H](n4cnc5c(N)ncnc54)[C@H](O)[C@@H]3O)[C@@H](O)[C@H]2O)C=CC1; experiment: purified protein; format: biochemical, Escherichia coli; conditions: reaction started by enzyme (oxidised enzyme), ferricyanide 0.25-2 mM, pH 6.0, 30 °C, ping-pong-pong with double substrate inhibition

Molecule: NC(=O)C1=CN([C@@H]2O[C@H](COP(=O)(O)OP(=O)(O)OC[C@H]3O[C@@H](n4cnc5c(N)ncnc54)[C@H](O)[C@@H]3O)[C@@H](O)[C@H]2O)C=CC1 [NADH]
- Ki, app. ^NADH [1]: 22 µM
- Km [2]: 11 µM
- Ki, app. ^NADH [3]: 22 µM

Molecule: NC(=O)c1ccc[n+]([C@@H]2O[C@H](COP(=O)(O)OP(=O)(O)OC[C@H]3O[C@@H](n4cnc5c(N)ncnc54)[C@H](O)[C@@H]3O)[C@@H](O)[C@H]2O)c1 [NAD^+]
- Rate constant: NAD^+ dissociation (s^-1) [4]: 2.3 10^3
- Rate constant: NAD^+ dissociation (s^-1) [5]: 2.4 10^3

Molecule: NC(=O)C1=CN([C@@H]2O[C@H](COP(=O)(O)OP(=O)(O)OC[C@H]3O[C@@H](n4cnc5c(=O)[nH]cnc54)[C@H](O)[C@@H]3O)[C@@H](O)[C@H]2O)C=CC1 [d-NADH]
- d-NADH:ferricyanide oxidoreductase activity of cytoplasmic membranes, 340 nm [6]: T. thermophilus membranes exhibited similar fast reaction rates

B1: E. coli respiratory complex I (NADH:ubiquinone oxidoreductase) (Escherichia coli K-12) (protein)
chain: MKNIIRTPETHPLTWRLRDDKQPVWLDEYRSKNGYEGARKALTGLSPDEIVNQVKDAGLKGRGGAGFSTGLKWSLMPKDESMNIRYLLCNADEMEPGTYKDRLLMEQLPHLLVEGMLISAFALKAYRGYIFLRGEYIEAAVNLRRAIAEATEAGLLGKNIMGTGFDFELFVHTGAGRYICGEETALINSLEGRRANPRSKPPFPATSGAWGKPTCVNNVETLCNVPAILANGVEWYQNISKSKDAGTKLMGFSGRVKNPGLWELPFGTTAREILEDYAGGMRDGLKFKAWQPGGAGTDFLTEAHLDLPMEFESIGKAGSRLGTALAMAVDHEINMVSLVRNLEEFFARESCGWCTPCRDGLPWSVKILRALERGEGQPGDIETLEQLCRFLGPGKTFCAHAPGAVEPLQSAIKYFREEFEAGIKQPFSNTHLINGIQPNLLKERW
notes: whole complex from the nuo operon, His-tagged NuoF, overproduced in E. coli, DDM-solubilised, purified by anion exchange, Ni-IDA and Source Q; with NADH-quinone oxidoreductase subunit E; NADH-quinone oxidoreductase subunit G; NADH-quinone oxidoreductase subunit C/D; NADH-quinone oxidoreductase subunit B; NADH-quinone oxidoreductase subunit I; NADH-quinone oxidoreductase subunit A; NADH-quinone …
- Km (purified protein): 11 µM
